According to PMC12666239 (Chembiochem, 2025):
Several values for one entry are separate records, joined by “and”; a condition that tells them apart may be missing. Equal entries are not always repeated.

Biological target: Nsp3b^F360N/D361S (Severe acute respiratory syndrome coronavirus 2, UniProt P0DTD1, D1179S/F1178N)
Assay type: binding, SARS-CoV-2

With `N#C[C@@]1(c2ccc3c(N)ncnn23)O[C@H](COS(N)(=O)=O)[C@@H](O)[C@H]1O` [compound 3] the TΔS was “≈ 0.10 kcal mol^−1”, the ΔG was −7.73 kcal mol^–1 and the ΔH was −7.83 ± 0.15 and −7.83 ± 0.15 kcal mol^–1. For the same compound, the “−TΔS” value was 0.104 kcal mol^–1.
